Data set [1] in a line: Peroxide value (PV), spectrophotometric ferric thiocyanate method, after storage in open glass. It counts as physicochemical. The source says:
The present invention also contemplates stabilization of the CLA acylglycerides by preventing oxidation of the compounds. The present invention is not limited to any one mechanism. Indeed, an understanding of the mechanism of the invention is not necessary to produce the composition or perform the methods of the present invention. […] After storage in open glass, the PV of CLA was 32; in comparison, the value for linoleic acid was 370.

The subject of data set [2] is rat mammary tumorigenesis. The conditions noted are these: administration of CLA; cited from earlier work.
The subject of data set [3] is human melanoma, colorectal and breast cancer cells. The conditions noted are these: in vitro; cited from earlier work.
Data set [4] deals with CD-4 and CD-8 lymphocyte subpopulations. The conditions noted are these: oral or parenteral, free acid or salt form; cited from earlier work.
For data set [5] the following is noted: diet containing 0.5 percent CLA, cited from earlier work.
The conditions of data set [6]: CLA incorporated into animal feed; cited from earlier work.

Data on 2 molecules can be found in patent publication US6891054B2, “Functional acylglycerides” (Natural AS, priority 2001, dated 2005).

Regarding `CCCCC/C=C\C/C=C\CCCCCCCC(=O)O` [linoleic acid, reference compound], the “peroxide value (PV)” value in data set [1] was 370.
With conjugated linoleic acid [CLA], the “peroxide value (PV)” value in data set [1] is reported as 32. Also, in data set [2], the “effect on rat mammary tumorigenesis” value was “inhibits rat mammary tumorigenesis”. The cytotoxicity entry in data set [3] is on record as “strong cytotoxic agent”. Further, the “CD-4 and CD-8 lymphocyte subpopulations” value in data set [4] is on record as “elevation”. The body weight entry in data set [5] is “no increase”. In data set [5] (pigs, mice, humans), the fat content entry is “significant drop” and the protein mass result is recorded as “concomitant increase”. In addition, the “efficiency of feed conversion” value in data set [6] is reported as “increased the efficiency of feed conversion”.
